Measurements published in patent US11578069B2, “Compounds for inhibition of α4 β7 integrin” (Gilead Sciences, Inc., priority 2019, dated 2023).

Columns and labels:
[1] = target: T1, α4β7 integrin (Homo sapiens, UniProt P13612+P26010); experiment: α4β7 Integrin Cell Capture Assay; assay type: cell-based; conditions: capture of α4β7 integrin expressing RPM18866 cells on MadCAM-1 extracellular domain-coated plate
T1 construct: monitoring the capture of α4β7 integrin expressing cells; endogenous in cells; host or cells: RPMI8866
T1 sequence (P13612 34-1032): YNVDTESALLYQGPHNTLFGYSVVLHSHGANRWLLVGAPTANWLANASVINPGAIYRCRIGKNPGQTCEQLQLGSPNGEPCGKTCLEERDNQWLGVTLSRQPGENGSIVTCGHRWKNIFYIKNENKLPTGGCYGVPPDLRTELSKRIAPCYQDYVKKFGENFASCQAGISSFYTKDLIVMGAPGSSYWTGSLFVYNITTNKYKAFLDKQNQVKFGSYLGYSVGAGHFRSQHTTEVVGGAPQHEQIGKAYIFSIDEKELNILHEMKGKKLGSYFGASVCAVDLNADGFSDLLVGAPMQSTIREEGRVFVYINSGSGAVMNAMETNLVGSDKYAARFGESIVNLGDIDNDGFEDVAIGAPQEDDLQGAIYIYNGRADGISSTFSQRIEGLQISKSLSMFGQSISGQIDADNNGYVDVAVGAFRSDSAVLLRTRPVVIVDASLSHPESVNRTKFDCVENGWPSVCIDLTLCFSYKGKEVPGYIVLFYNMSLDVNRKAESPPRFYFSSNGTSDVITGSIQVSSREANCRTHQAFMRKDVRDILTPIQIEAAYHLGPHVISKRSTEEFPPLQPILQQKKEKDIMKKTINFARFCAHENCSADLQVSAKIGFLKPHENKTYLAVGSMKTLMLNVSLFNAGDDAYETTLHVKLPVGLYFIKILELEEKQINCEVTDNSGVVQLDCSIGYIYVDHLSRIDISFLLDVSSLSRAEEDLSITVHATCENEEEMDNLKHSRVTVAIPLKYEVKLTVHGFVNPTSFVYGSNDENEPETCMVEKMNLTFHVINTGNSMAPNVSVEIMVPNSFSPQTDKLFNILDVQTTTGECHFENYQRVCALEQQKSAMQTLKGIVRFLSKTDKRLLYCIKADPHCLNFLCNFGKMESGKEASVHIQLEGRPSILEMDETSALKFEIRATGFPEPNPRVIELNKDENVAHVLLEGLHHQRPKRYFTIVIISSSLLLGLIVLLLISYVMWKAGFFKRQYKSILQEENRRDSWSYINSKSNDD
T1 sequence (P26010 20-798): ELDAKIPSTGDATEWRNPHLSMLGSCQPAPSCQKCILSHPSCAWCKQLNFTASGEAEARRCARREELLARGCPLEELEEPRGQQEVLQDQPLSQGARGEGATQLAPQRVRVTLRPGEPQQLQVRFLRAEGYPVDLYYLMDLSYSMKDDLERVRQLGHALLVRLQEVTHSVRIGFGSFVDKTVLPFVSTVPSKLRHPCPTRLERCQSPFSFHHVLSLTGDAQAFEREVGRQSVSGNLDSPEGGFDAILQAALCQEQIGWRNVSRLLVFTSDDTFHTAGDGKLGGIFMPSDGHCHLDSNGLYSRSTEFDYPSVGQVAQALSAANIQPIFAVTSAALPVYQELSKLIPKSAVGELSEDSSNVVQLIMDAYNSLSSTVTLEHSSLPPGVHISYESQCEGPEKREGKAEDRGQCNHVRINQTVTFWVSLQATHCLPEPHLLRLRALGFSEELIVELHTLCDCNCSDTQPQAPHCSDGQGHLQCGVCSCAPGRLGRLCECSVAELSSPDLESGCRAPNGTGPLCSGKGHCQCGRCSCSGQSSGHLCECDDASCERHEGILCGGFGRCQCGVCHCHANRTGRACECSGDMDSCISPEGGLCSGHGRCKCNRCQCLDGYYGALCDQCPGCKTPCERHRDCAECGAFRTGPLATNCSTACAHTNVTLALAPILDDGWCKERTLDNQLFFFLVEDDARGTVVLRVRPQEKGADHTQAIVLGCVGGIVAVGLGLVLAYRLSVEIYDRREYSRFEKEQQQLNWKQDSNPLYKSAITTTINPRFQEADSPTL
How it was run: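 RPM18866 cells were preincubated with compound for 1 h at 37 °C in DMEM with 0.5% FBS and 0.5 mM MnCl2. They were then allowed to adhere for 30 min at 37 °C to BSA-blocked plates coated with MAdCAM-1 extracellular domain (1.0 µg/mL). After glutaraldehyde/Hoechst fixation and washing, bound cells were counted by imaging, and EC50 was fitted from counts versus concentration.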

[2] = target: T2, α4β1 integrin (Homo sapiens, UniProt P05556+P13612); experiment: α4β1 Cell Capture Assay; assay type: cell-based; conditions: capture of α4β1 expressing Jurkat cells on VCAM-1 extracellular domain-coated plate
T2 construct: monitoring the capture of α4β1 expressing cells; endogenous in cells; host or cells: Jurkat
T2 sequence (P05556 21-798, one chain of several): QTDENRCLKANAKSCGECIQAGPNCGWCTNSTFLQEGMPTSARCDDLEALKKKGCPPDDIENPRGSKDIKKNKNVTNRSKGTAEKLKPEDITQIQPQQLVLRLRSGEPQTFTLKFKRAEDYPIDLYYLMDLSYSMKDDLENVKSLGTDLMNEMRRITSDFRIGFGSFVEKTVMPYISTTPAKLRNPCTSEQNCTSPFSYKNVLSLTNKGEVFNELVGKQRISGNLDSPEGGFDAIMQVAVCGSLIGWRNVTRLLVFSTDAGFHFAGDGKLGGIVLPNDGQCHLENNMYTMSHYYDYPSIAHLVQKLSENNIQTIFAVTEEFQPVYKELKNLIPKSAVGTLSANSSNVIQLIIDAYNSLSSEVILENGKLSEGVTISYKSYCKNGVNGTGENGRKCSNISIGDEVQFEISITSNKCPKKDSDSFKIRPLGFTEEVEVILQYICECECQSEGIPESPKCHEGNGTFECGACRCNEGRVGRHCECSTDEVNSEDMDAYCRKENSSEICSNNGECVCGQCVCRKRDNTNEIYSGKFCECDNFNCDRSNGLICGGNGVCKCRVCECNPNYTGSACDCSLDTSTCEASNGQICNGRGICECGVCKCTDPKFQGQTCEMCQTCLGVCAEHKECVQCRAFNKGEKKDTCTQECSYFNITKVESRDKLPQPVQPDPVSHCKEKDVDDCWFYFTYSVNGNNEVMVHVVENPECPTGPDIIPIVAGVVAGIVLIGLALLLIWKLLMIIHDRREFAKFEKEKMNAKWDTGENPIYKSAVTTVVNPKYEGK
How it was run: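 Jurkat cells in DMEM with 0.5% FBS and 0.5 mM MnCl2 preincubated 1 h at 37° C with compound, then allowed 30 min at 37° C to bind plates coated with recombinant VCAM-1 extracellular domain (0.5 μg/ml). After glutaraldehyde fixation and Hoechst staining, bound cells counted by imaging; EC50 from concentration–response.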

Row | SMILES | EC50 ([1]; Table 1) [nM] | EC50 ([2]; Table 1) [nM] | EC50 ([1]; Table 2) [nM] | EC50 ([2]; Table 2) [nM]
1 | Cc1cc(N2CCOC[C@@H]2C(F)(F)F)cc(F)c1C(=O)N[C@@H](Cc1ccc(-n2c(=O)c3c(n(C)c2=O)CCOC3)nc1)C(=O)O [Example 68, (S)-2-(2-fluoro-6-methyl-4-((R)-3-(trifluoromethyl)morpholino)benzamido)-3-(6-(1-methyl-2,4-dioxo-1,5,7,8-tetrahydro-2H-pyrano[4,3-d]pyrimidin-3(4H)-yl)pyridin-3-yl)propanoic acid] | 0.3 | 14.9 |  | 
2 | Cc1cc(N2CCOC[C@@H]2CC(F)F)cc(F)c1C(=O)N[C@@H](Cc1ccc(-n2c(=O)c3ccncc3n(C)c2=O)nc1)C(=O)O [Example 69, (S)-2-(4-((S)-3-(2,2-difluoroethyl)morpholino)-2-fluoro-6-methylbenzamido)-3-(6-(1-methyl-2,4-dioxo-1,4-dihydropyrido[3,4-d]pyrimidin-3(2H)-yl)pyridin-3-yl)propanoic acid] | 0.2 | 20.8 |  | 
3 | Cc1cc(N2CCOC[C@@H]2CC(F)F)cc(F)c1C(=O)N[C@@H](Cc1ccc(-n2c(=O)c3c(n(C)c2=O)COC3)cc1)C(=O)O [Example 70, (S)-2-(4-((S)-3-(2,2-difluoroethyl)morpholino)-2-fluoro-6-methylbenzamido)-3-(4-(1-methyl-2,4-dioxo-1,2,5,7-tetrahydrofuro[3,4-d]pyrimidin-3(4H)-yl)phenyl)propanoic acid] | 3.9 | 2.4 |  | 
4 | COc1cnc2c(=O)n(-c3ccc(C[C@H](NC(=O)c4c(C)cc(N5CCOC[C@@H]5C(F)(F)F)cc4F)C(=O)O)cn3)c(=O)n(C)c2c1 [Example 78] |  |  | 0.16 | 3.4
5 | Cc1cc(N2CCOC[C@@H]2C(F)(F)F)cc(F)c1C(=O)N[C@@H](Cc1cc(F)c(-n2c(=O)c3ccncc3n(C)c2=O)c(F)c1)C(=O)O [Example 80] |  |  | 0.06 | 2.1
6 | Cn1c(=O)n(-c2c(F)cc(C[C@H](NC(=O)c3c(F)cc(N4CCOC[C@@H]4C(F)(F)F)cc3F)C(=O)O)cc2F)c(=O)c2ccncc21 [Example 82] |  |  | 0.15 | 4.5
7 | Cc1cc(N2CCOC[C@@H]2C(F)(F)F)cc(F)c1C(=O)N[C@@H](Cc1ccc(-n2c(=O)c3ccncc3n(C)c2=O)c(F)c1)C(=O)O [Example 84] |  |  | 0.05 | 1.7
8 | Cc1cc(N2CCOC[C@H]2CC(F)F)cc(F)c1C(=O)N[C@@H](Cc1ccc(-n2c(=O)c3ccncc3n(C)c2=O)nc1)C(=O)O [Example 85] |  |  | 3.9 | 17.9

Next, values leading:

Row | EC50 ([1]; Table 1) [nM] | EC50 ([2]; Table 1) [nM] | EC50 ([1]; Table 2) [nM] | EC50 ([2]; Table 2) [nM] | SMILES
9 |  |  | 0.18 | 4 | Cc1cc(N2CCOC[C@@H]2C(F)(F)F)cc(F)c1C(=O)N[C@@H](Cc1ccc(-n2c(=O)c3c(C#N)cccc3n(C)c2=O)nc1)C(=O)O [Example 72]
10 |  |  | 0.14 | 5.2 | Cc1cc(N2CCOC[C@@H]2C(F)(F)F)cc(F)c1C(=O)N[C@@H](Cc1ccc(-n2c(=O)c3cc(C#N)ccc3n(C)c2=O)nc1)C(=O)O [Example 74]
11 |  |  | 0.16 | 4.9 | Cc1cc(N2CCOC[C@@H]2C(F)(F)F)cc(F)c1C(=O)N[C@@H](Cc1ccc(-n2c(=O)c3ccc(C#N)cc3n(C)c2=O)nc1)C(=O)O [Example 76]
12 |  |  | 4.2 | 46.1 | Cc1cc(N2CCOC[C@H]2CC(F)(F)F)cc(F)c1C(=O)N[C@@H](Cc1ccc(-n2c(=O)c3ccncc3n(C)c2=O)nc1)C(=O)O [Example 86]
13 |  |  | 0.9 | 19.7 | Cc1cc(N2CCOC[C@@H]2CC(F)(F)F)cc(F)c1C(=O)N[C@@H](Cc1ccc(-n2c(=O)c3ccncc3n(C)c2=O)nc1)C(=O)O [Example 87]
